Laboratory results taken from patent publication US20260138958A1, “SUBSTITUTED N-PHENYLURACILS AND SALTS THEREOF, AND USE THEREOF AS HERBICIDAL ACTIVE SUBSTANCES” (Bayer Aktiengesellschaft, priority 2022, published 2026).

Columns and labels:
Assay type in all cases: in vivo
[1] = tested on: Alopecurus myosuroides (ALOMY); assay: Post-emergence herbicidal action, greenhouse pot test; conditions: for ALOMY (efficacy in %): Table B1 comparison, application rate 20 g/ha
Summary of the method: (§1)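 Visual rating, about 3 weeks post-spray, relative to untreated plants: 100% activity means plants died, 0% means no difference from control. Plants in sandy loam were treated at one-leaf stage (2–3 weeks after sowing) with compound as WP or EC in water, 0.5% additive, 600 l/ha.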

[2] = tested on: Echinochloa crus-galli (ECHCG); assay: as above; conditions: for ECHCG (efficacy in %): Table B2 comparison, application rate 1.25 g/ha
Summary of the method: as §1

Avena fatura (AVEFA) = assay: Comparative post-emergence herbicidal action, greenhouse pot test; conditions: Table B3 comparison, application rate 20 g/ha
Description: (§2) Seeds of monocotyledonous and dicotyledonous weeds and crop plants were placed in sandy loam in plastic or wood-fibre pots, covered with soil and cultivated in a greenhouse under controlled growth conditions. 2 to 3 weeks after sowing, the test plants were treated at the one-leaf stage. The compounds of the invention, formulated in the form of wettable powders (WP) or as emulsion concentrates (EC), were then sprayed onto the green parts of the plants as aqueous suspension or emulsion with addition of 0.5% additive at a water application rate of 600 l/ha (converted). After the test plants had been kept in the greenhouse under optimum growth conditions for about 3 weeks, the activity of the preparations was rated visually in comparison to untreated controls. For example, 100% activity=the plants have died, 0% activity=like control plants.
Tables B1-B5 below show the effects of inventive compounds (I.7-12, I.7-14, I.7-16) that have been obtained by the test method specified above on various harmful plants at an application rate corresponding to 20 g/ha or lower by comparison with structurally similar compounds known from the literature (“a-27”, “a-29”, disclosed in WO2002/098227).

[3] = tested on: Abutilon theophrasti (ABUTH); assay: Post-emergence herbicidal action, greenhouse pot test
Summary of the method: as §1

[4] = tested on: Amaranthus retroflexus (AMARE); assay: as above; conditions: Amaranthus retroflexus, 504 h
Summary of the method: as §1

[5] = tested on: Digitaria sanguinalis (DIGSA); assay: as above
Summary of the method: as §1

[6] = tested on: Pharbitis purpurea (PHBPU); assay: as above
Summary of the method: as §1

[7] = tested on: Polygonum convolvulus (POLCO); assay: as above; conditions: Fallopia convolvulus, 504 h
Summary of the method: as §1

Setaria viridis (SETVI) = assay: as above
Summary of the method: as §1

[8] = tested on: Tripleurospermum inodorum (MATIN); assay: as above; conditions: Tripleurospermum inodorum, 504 h, 20 g/ha, read-out: Post-emergence effect at 20 g/ha against MATIN in %
Summary of the method: as §1

Veronica persica (VERPE) = assay: as above
Summary of the method: as §1

Viola tricolor (VIOTR) = assay: as above
Summary of the method: as §1

Oryza sativa (ORYSA) = assay: Post-emergence crop plant compatibility, greenhouse pot test; conditions: Oryza sativa, in vivo
Summary of the method: (§3)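 Visual % damage scores were taken roughly 3 weeks after treatment, relative to untreated plants, where 100% means plants died and 0% means no difference. Plants received aqueous sprays (WP or EC, 0.5% additive, 600 l/ha) on green parts at the one-leaf stage, 2–3 weeks after sowing.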

[9] = tested on: Triticum aestivum (TRZAS); assay: as above; conditions: Triticum aestivum, in vivo
Summary of the method: as §3

Zea mays (ZEAMX) = assay: as above; conditions: Zea mays, in vivo
Summary of the method: as §3

harmful plants = assay: Post-emergence herbicidal action, summary statements over several weeds; conditions: 20 g or less per hectare, ALOMY, ECHCG, AVEFA, VERPE
Description: as §2

crop plants = assay: Post-emergence crop plant compatibility, summary statements over several crops; conditions: 5 g or less per hectare, ORYSA, ZEAMX, TRZAS
Description: as §2
The observed effects on selected crop plants are reported here in comparison to the untreated controls (values in %).

## Cn1c(C(F)(F)F)cc(=O)n(-c2cc(Oc3ccccc3OCC(=O)OC3CCCC3)c(Cl)cc2F)c1=O [a-27, reference compound]
[1]
  ALOMY (efficacy in %): 80%
[2]
  ECHCG (efficacy in %): 30%
Avena fatura (AVEFA)
  AVEFA (efficacy in %): 40%

## Cn1c(C(F)(F)F)cc(=O)n(-c2cc(Oc3ccccc3OCC(=O)OCC3CCCC3)c(Cl)cc2F)c1=O [I.7-12]
[3]; 1.25 g/ha
  Post-emergence effect at 1.25 g/ha against ABUTH in %: 90%
[3]; Abutilon theophrasti, 504 h, 5 g/ha, read-out: Post-emergence effect at 5 g/ha against ABUTH in %
  pest or weed control at 5 g/ha: 100%
[3]; Abutilon theophrasti, 504 h, 20 g/ha, read-out: Post-emergence effect at 20 g/ha against ABUTH in %
  pest or weed control at 20 g/ha: 100%
[1]; Alopecurus myosuroides, 504 h, 20 g/ha, read-out: Post-emergence effect at 20 g/ha against ALOMY in %
  pest or weed control at 20 g/ha: 100%
[1]
  ALOMY (efficacy in %): 100%
[4]; 1.25 g/ha, read-out: Post-emergence effect at 1.25 g/ha against AMARE in %
  pest or weed control at 1.25 g/ha: 100%
[4]; 5 g/ha, read-out: Post-emergence effect at 5 g/ha against AMARE in %
  pest or weed control at 5 g/ha: 100%
[4]; 20 g/ha, read-out: Post-emergence effect at 20 g/ha against AMARE in %
  pest or weed control at 20 g/ha: 100%
[5]; 1.25 g/ha
  Post-emergence effect at 1.25 g/ha against DIGSA in %: 100%
[5]; 5 g/ha
  Post-emergence effect at 5 g/ha against DIGSA in %: 100%
[5]; 20 g/ha
  Post-emergence effect at 20 g/ha against DIGSA in %: 100%
[2]; 5 g/ha
  Post-emergence effect at 5 g/ha against ECHCG in %: 90%
[2]; Echinochloa crus-galli, 504 h, 20 g/ha, read-out: Post-emergence effect at 20 g/ha against ECHCG in %
  pest or weed control at 20 g/ha: 100%
[2]
  ECHCG (efficacy in %): 60%
[6]; 1.25 g/ha
  Post-emergence effect at 1.25 g/ha against PHBPU in %: 80%
[6]; Ipomoea purpurea, 504 h, 5 g/ha, read-out: Post-emergence effect at 5 g/ha against PHBPU in %
  pest or weed control at 5 g/ha: 100%
[6]; Ipomoea purpurea, 504 h, 20 g/ha, read-out: Post-emergence effect at 20 g/ha against PHBPU in %
  pest or weed control at 20 g/ha: 100%
[7]; 5 g/ha, read-out: Post-emergence effect at 5 g/ha against POLCO in %
  pest or weed control at 5 g/ha: 80%
[7]; 20 g/ha, read-out: Post-emergence effect at 20 g/ha against POLCO in %
  pest or weed control at 20 g/ha: 100%
Setaria viridis (SETVI); 1.25 g/ha
  Post-emergence effect at 1.25 g/ha against SETVI in %: 80%
Setaria viridis (SETVI); Setaria viridis, 504 h, 5 g/ha, read-out: Post-emergence effect at 5 g/ha against SETVI in %
  pest or weed control at 5 g/ha: 100%
Setaria viridis (SETVI); Setaria viridis, 504 h, 20 g/ha, read-out: Post-emergence effect at 20 g/ha against SETVI in %
  pest or weed control at 20 g/ha: 100%
[8]
  pest or weed control at 20 g/ha: 100%
Veronica persica (VERPE); 1.25 g/ha
  Post-emergence effect at 1.25 g/ha against VERPE in %: 90%
Veronica persica (VERPE); Veronica persica, 504 h, 5 g/ha, read-out: Post-emergence effect at 5 g/ha against VERPE in %
  pest or weed control at 5 g/ha: 100%
Veronica persica (VERPE); Veronica persica, 504 h, 20 g/ha, read-out: Post-emergence effect at 20 g/ha against VERPE in %
  pest or weed control at 20 g/ha: 100%
Viola tricolor (VIOTR); 1.25 g/ha
  Post-emergence effect at 1.25 g/ha against VIOTR in %: 100%
Viola tricolor (VIOTR); 5 g/ha
  Post-emergence effect at 5 g/ha against VIOTR in %: 100%
Viola tricolor (VIOTR); Viola tricolor, 504 h, 20 g/ha, read-out: Post-emergence effect at 20 g/ha against VIOTR in %
  pest or weed control at 20 g/ha: 100%
Oryza sativa (ORYSA)
  Post-emergence effect at 1.25 g/ha against ORYSA in %: 0%
  Post-emergence effect at 5 g/ha against ORYSA in %: 20%
[9]
  Post-emergence effect at 1.25 g/ha against TRZAS in %: 10%
  Post-emergence effect at 20 g/ha against TRZAS in %: 20%
Zea mays (ZEAMX)
  Post-emergence effect at 1.25 g/ha against ZEAMX in %: 10%
  Post-emergence effect at 5 g/ha against ZEAMX in %: 20%
Avena fatura (AVEFA)
  AVEFA (efficacy in %): 70%
Harmful plants
  herbicidal efficacy by comparison with a-27, a-29 or a generically encompassed structure (WO2002/098227): distinctly improved herbicidal efficacy
Crop plants
  compatibility with crop plants by comparison with a-27, a-29 or a generically encompassed structure (WO2002/098227): distinctly improved compatibility
